According to US20180332847A1, “ANTIMICROBIAL METAL CARBOXYLATE-BENZISOTHIAZOLINONE MIXTURES” (Troy Corporation, priority 2017, published 2018):

What was measured:
Format in all cases: cell-based
Pseudomonas aeruginosa = test: Minimum Inhibitory Concentration (MIC) by spiral plater / spiral gradient endpoint against Pseudomonas aeruginosa; conditions: quantity of BIT used alone that gives the desired effect, Pseudomonas aeruginosa
Protocol: (§1) Synergistic Index=Qa/QA+Qb/QB [Equation No. 1] • where Qa=the quantity of component A used in a binary mixture that gives the desired effect • QA=the quantity of component A which when used alone gives the desired effect • Qb=the quantity of component B used in a binary mixture that gives the desired effect • QB=the quantity of component B which when used alone gives the desired effect
Minimum Inhibitory Concentration (“MIC”) for each of the antimicrobial compositions was determined against a test microbe, which in this case was a spore suspension of the fungus Alternaria alternata, with the aid of an Autoplate 4000 spiral plater that is commercially available from Spiral Biotech, Inc., Norwood, Mass., and its accompanying spiral gradient endpoint software (hereinafter referred to as “the SGE software”). The spiral plater automates the normal serial dilution method for determining MICs. Although the details of the SGE software are held confidentially by Spiral Biotech, Inc., they are believed to consistent with the principles set forth in “Measurement of MICs of antibacterial agents by spiral gradient endpoint compared with conventional dilution method” J. H. Paton, H. A. Holt, and M. J. Bywater—Int. J. Exp. Clin. Chemother, 1990.
The spiral plater automatically applied 54.3 micro-liters of each antimicrobial composition of interest to the surface of 150 millimeter malt agar plates using an exponential application gradient. The concentration of the antimicrobial concentration was greatest near the center of the Petri plates and decreased toward the edges. Antimicrobial composition gradients were allowed to air dry at room temperature for 1 to 4 hours at 23° C. before inoculation with test microbe. Spiral gradient plates were inoculated by streaking with cotton swabs that had been soaked in test microbe spore suspension. Streaks were applied in a radial pattern, using a paper template generated by the SGE software to guide the application. Eight radii were inoculated per Petri plate. Each radius is considered as one replicated observation.
Inoculated spiral gradient plates were incubated for 48 hours in an incubator at 28° C. Visible growth of the test microbe developed along the radial streaks and ended where the concentration of the antimicrobial composition was sufficient to prevent growth. This growth endpoint value (expressed in mm as measured from center point of the Petri plate) was used to calculate MIC for the mixture, expressed as parts per million.
Utilizing the procedure described above in Example 1, Minimum Inhibitory Concentration (“MIC”) for each of the antimicrobial compositions was determined against a test microbe, which in this case was a spore suspension of the bacterium Pseudomonas aeruginosa. Several antimicrobial compositions containing calcium gluconate, BIT, or both in water were investigated, as shown below in Table 7.
Utilizing the procedure described above in Example 1, Minimum Inhibitory Concentration (“MIC”) for each of the antimicrobial compositions was determined against a test microbe, which in this case was a […] Pseudomonas aeruginosa. Several antimicrobial compositions containing calcium glycerate, BIT, or both in water were investigated, as shown below in Table 13.
Utilizing the procedure described above in Example 1, Minimum Inhibitory Concentration (“MIC”) of certain antimicrobial compositions was determined against a test microbe, which in this case was a spore suspension of the bacterium Pseudomonas aeruginosa. Several antimicrobial compositions containing zinc gluconate, BIT, or both in water were investigated, as shown below in Table 19.

Klebsiella pneumoniae = test: Minimum Inhibitory Concentration (MIC) by spiral plater / spiral gradient endpoint against Klebsiella pneumoniae; conditions: quantity of BIT used alone that gives the desired effect, calcium ethylhexanoate-BIT series
Protocol: as §1
(§2) Minimum Inhibitory Concentration (“MIC”) for each of the antimicrobial compositions was determined against a test microbe, which in this case was a spore suspension of the fungus Alternaria alternata, with the aid of an Autoplate 4000 spiral plater that is commercially available from Spiral Biotech, Inc., Norwood, Mass., and its accompanying spiral gradient endpoint software (hereinafter referred to as “the SGE software”). […]
(§3) Inoculated spiral gradient plates were incubated for 48 hours in an incubator at 28° C. […] This growth endpoint value (expressed in mm as measured from center point of the Petri plate) was used to calculate MIC for the mixture, expressed as parts per million.
Utilizing the procedure described above in Example 1, Minimum Inhibitory Concentration (“MIC”) for each of the antimicrobial compositions was determined against a test microbe, which in this case was a spore suspension of the bacteria Klebsiella pneumoniae. […]

Saccharomyces cervisiae = test: Minimum Inhibitory Concentration (MIC) by spiral plater / spiral gradient endpoint against Saccharomyces cervisiae; conditions: quantity of BIT used alone that gives the desired effect; calcium gluconate-BIT series; Saccharomyces cervisiae
Protocol: as §1, §2, §3
Utilizing the procedure described above in Example 1, Minimum Inhibitory Concentration (“MIC”) for each of the antimicrobial compositions was determined against a test microbe, which in this case was a spore suspension of the yeast Saccharomyces cervisiae. […]

Staphylococcus aureus = test: Minimum Inhibitory Concentration (MIC) by spiral plater / spiral gradient endpoint against Staphylococcus aureus
[1] = system: mixed bacterial inoculum: Pseudomonas aeruginosa (ATCC #10145), Escherichia coli (ATCC #11229), Enterobacter aerogenes (ATCC #13048), Alcaligenes faecalis …; test: Two-part bacterial challenge of acrylic latex paint samples with a mixed inoculum (performance ratings); design: key to Performance Ratings Week 1, 1 Day / Performance Ratings Week 1, 2 Days / Performance Ratings Week 1, 8 Days / Performance Ratings Week 2, 1 Day / Performance Ratings Week 2, 2 Days / Performance Ratings Week 2, 8 Days: 0: No bacterial growth; 1: Trace of bacterial growth; 2: Light bacterial growth; 3: Moderate bacterial growth; 4: Heavy bacterial growth; conditions: for Performance Ratings Week 1, 1 Day: Week 1, 1 Day after inoculation; for Performance Ratings Week 1, 2 Days: Week 1, 2 Days after inoculation; for Performance Ratings Week 1, 8 Days: Week 1, 8 Days after inoculation; for Performance Ratings Week 2, 1 Day: Week 2, 1 Day after inoculation; for Performance Ratings Week 2, 2 Days: Week 2, 2 Days after inoculation; for Performance Ratings Week 2, 8 Days: Week 2, 8 Days after inoculation
Protocol: In order to quantify the antibacterial effectiveness of an antimicrobial composition of interest, samples were prepared by adding various amounts of the antimicrobial composition to identical volumes of a paint that contained no preservatives and was not contaminated by bacteria. In this case, the test sample was a white, aqueous-based, acrylic latex paint. The paint included an acrylic resin, and conventional additives such as surfactant, thickener, defoamer, and titanium oxide.
The samples of the paint were subjected to a two-part challenge procedure and the sample that provided acceptable anti-bacterial protection with the lowest concentration of the antimicrobial composition was identified. Each part of the anti-bacterial challenge consisted of a 7-day test cycle. The parts were performed consecutively over 14 test days.
Challenge testing was accomplished using a mixed bacterial inoculum as the contamination event. These bacteria are Pseudomonas aeruginosa (ATCC #10145), Escherichia coli (ATCC #11229), Enterobacter aerogenes (ATCC #13048), and Alcaligenes faecalis (ATCC #25094). To prepare the test inoculum, each type of bacteria was harvested separately in nutrient broth. Just before use in the challenge test, equal strengths of each bacterial culture were mixed to obtain an inoculum of approximately 10^8 colony forming units per milliliter (cfu/mL).
After incubation, both control blanks and samples containing preservatives of interest were inoculated with the mixed inoculum to a final of 1.0 weight %. […]
Performance ratings of 0, 1, 2, 3 or 4 for each inoculated paint sample were determined by visual inspection of the streak lines, according to the definitions set forth below in Table 25.

O=c1[nH]sc2ccccc12 [BIT, 1,2-benzisothiazol-3(2H)-one]
QB (Pseudomonas aeruginosa; calcium gluconate-BIT series): 85 ppm
QB (Pseudomonas aeruginosa; calcium glycerate-BIT series): 27.5 ppm
QB (Pseudomonas aeruginosa; zinc gluconate-BIT series): 661 ppm
QB (Klebsiella pneumoniae): 27 ppm
QB (Saccharomyces cervisiae): 61 ppm
QB (Staphylococcus aureus; MIC of BIT alone for Staphylococcus aureus, used for SI): 16 ppm
ppm of BIT alone providing the same inhibition (Staphylococcus aureus; zinc glycerate-BIT series, Staphylococcus aureus): 16 ppm
Performance Ratings Week 1, 1 Day ([1]; 50 ppm in acrylic latex paint): 4
Performance Ratings Week 1, 2 Days ([1]; 50 ppm in acrylic latex paint): 4
Performance Ratings Week 1, 8 Days ([1]; 50 ppm in acrylic latex paint): 4
Performance Ratings Week 2, 1 Day ([1]; 50 ppm in acrylic latex paint): 4
Performance Ratings Week 2, 2 Days ([1]; 50 ppm in acrylic latex paint): 4
Performance Ratings Week 2, 8 Days ([1]; 50 ppm in acrylic latex paint): 4
Performance Ratings Week 1, 1 Day ([1]; 500 ppm in acrylic latex paint): 4
Performance Ratings Week 1, 2 Days ([1]; 500 ppm in acrylic latex paint): 2
Performance Ratings Week 1, 8 Days ([1]; 500 ppm in acrylic latex paint): 0
Performance Ratings Week 2, 1 Day ([1]; 500 ppm in acrylic latex paint): 4
Performance Ratings Week 2, 2 Days ([1]; 500 ppm in acrylic latex paint): 4
Performance Ratings Week 2, 8 Days ([1]; 500 ppm in acrylic latex paint): 0
